In assay [1] the target is T1, Zinc finger protein mex-5 (Caenorhabditis elegans, UniProt Q9XUB2).
T1 sequence (Q9XUB2 whole entry): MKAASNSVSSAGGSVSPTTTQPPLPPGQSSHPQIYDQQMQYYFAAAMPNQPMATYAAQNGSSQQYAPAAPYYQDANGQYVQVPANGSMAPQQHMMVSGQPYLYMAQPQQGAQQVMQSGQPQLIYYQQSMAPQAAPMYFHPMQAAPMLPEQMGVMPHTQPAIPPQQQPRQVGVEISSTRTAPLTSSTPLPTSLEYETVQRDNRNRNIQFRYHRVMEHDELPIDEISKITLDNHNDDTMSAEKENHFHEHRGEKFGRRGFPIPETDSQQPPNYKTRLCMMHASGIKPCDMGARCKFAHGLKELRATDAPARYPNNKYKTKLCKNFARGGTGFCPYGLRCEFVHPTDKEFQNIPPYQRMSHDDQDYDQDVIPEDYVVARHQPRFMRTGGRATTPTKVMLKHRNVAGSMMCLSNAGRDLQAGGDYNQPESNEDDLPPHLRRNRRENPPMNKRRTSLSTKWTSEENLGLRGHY
The assay is described as follows: MEX-5/TCR-2 RNA interaction inhibitors, dose response, biochemical, C. elegans, fluorescence polarization (AID 1960).

The subject of another assay is Vero. Put plainly: cells. It is filed as functional. Conditions: Chlorocebus sabaeus.
For assay [2], the target named is T2, RNA-binding protein pos-1 (Caenorhabditis elegans, UniProt G5EF15).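 Also: purified POS-1 fused to maltose binding protein made in E. coli; potency of compounds blocking POS-1 binding to fluorescent RNA.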
T2 sequence (G5EF15 whole entry): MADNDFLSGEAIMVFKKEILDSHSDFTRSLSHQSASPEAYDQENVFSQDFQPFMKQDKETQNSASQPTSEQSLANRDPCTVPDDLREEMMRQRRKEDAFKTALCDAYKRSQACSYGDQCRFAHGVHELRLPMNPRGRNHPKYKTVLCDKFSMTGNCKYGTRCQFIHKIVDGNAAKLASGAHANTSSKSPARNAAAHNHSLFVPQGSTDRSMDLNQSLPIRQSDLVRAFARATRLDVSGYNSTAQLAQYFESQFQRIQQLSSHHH
Put plainly: inhibitors of POS-1/mex-3 RNA binding, dose response, biochemical, fluorescence polarization (AID 1964). (In general: In fluorescence polarisation assays a small probe gives low polarisation when free and higher when bound to something large.)

Assay [3] is described as follows: microbe, parasite or virus in culture. It is filed as functional. Particulars: Mycobacterium tuberculosis.
Assay [4] can be described thus: inhibitors of firefly luciferase expression or activity, dose response, H4 neuroglioma cells, luminescence (AID 1990). It is filed as functional, cell-based.
Assay [5] can be described thus: inhibitors of SNCA 5'UTR-driven reporter translation, confirmation, H4 neuroglioma cells, luminescence (AID 1988). It is filed as functional, cell-based.
Assay [6] is described as follows: Luminescence Cell-Based Dose Response HTS to Identify Inhibitors of 5'UTR Stem-Loop Driven Prion Protein mRNA Translation in H4 Neuroglioblastoma Cells. [Related pubchem assays: 1827 (Project Summary), 1813 (Primary HTS)]. It is filed as functional.
Assay [7] is described as follows: NIH-3T3 fibroblast cytotoxicity, dose response, cytotoxicity control, cell-based, fluorescence, Alamar Blue, secondary assay (AID 2327).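 Also: NIH-3T3 mouse fibroblasts cultured with fluconazole at 8 µg/mL.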 It is filed as functional. In general terms: The colour change of resazurin is a common sign of viable cells or microbes.
Assay [8] can be described thus: C. albicans growth with fluconazole, confirmation, fluorescence, retest (AID 2467). It is filed as functional, cell-based.
A short description of assay [9]: control 3'UTR Renilla luciferase suppression, dose response, counter-screen for Shn3 inhibitor project, cell-based, Clone20-Shn3RL, cherry-picked (AID 624133). It is filed as functional.
A short description of assay [10]: Shn3 3'UTR reporter inhibitors, dose response, cell-based, Clone20 osteoblasts, firefly luciferase, cherry-picked (AID 624132).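 Also: firefly luciferase luminescence from reporter carrying the Shn3 3'UTR in osteoblasts.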 It is filed as functional.
Assay [11] can be described thus: HepG2 cell cytotoxicity, dose response, cytotoxicity control for Shn3 inhibitor project, CellTiter-Glo, cherry-picked (AID 624134). It is filed as functional, cell-based.
A further assay deals with INS1. The assay is described as follows: beta cell apoptosis inhibitors, cytokine rescue, dose response, luminescence, retest (AID 449756).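 Also: cell death triggered by IL-1 beta plus TNF-alpha plus IFN-gamma mixture; protective hits raise ATP signal compared with cytokine alone wells.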 Particulars: Rattus norvegicus. It is filed as functional, cell-based.
For the next assay, the target named is Large T antigen (Simian virus 40, UniProt P03070). It is filed as functional, Betapolyomavirus macacae.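 Also: Confirmatory-stage PubChem screen for compounds that inhibit SV40 T antigen.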
The next assay relates to H9c2. The assay is described as follows: cells. Particulars: Rattus norvegicus, H9c2, Myocardium. It is filed as functional, cell-based.
For assay [12], the target named is T3, Rac GTPase-activating protein 1 (Homo sapiens, UniProt Q9H0H5).
T3 sequence (Q9H0H5 whole entry): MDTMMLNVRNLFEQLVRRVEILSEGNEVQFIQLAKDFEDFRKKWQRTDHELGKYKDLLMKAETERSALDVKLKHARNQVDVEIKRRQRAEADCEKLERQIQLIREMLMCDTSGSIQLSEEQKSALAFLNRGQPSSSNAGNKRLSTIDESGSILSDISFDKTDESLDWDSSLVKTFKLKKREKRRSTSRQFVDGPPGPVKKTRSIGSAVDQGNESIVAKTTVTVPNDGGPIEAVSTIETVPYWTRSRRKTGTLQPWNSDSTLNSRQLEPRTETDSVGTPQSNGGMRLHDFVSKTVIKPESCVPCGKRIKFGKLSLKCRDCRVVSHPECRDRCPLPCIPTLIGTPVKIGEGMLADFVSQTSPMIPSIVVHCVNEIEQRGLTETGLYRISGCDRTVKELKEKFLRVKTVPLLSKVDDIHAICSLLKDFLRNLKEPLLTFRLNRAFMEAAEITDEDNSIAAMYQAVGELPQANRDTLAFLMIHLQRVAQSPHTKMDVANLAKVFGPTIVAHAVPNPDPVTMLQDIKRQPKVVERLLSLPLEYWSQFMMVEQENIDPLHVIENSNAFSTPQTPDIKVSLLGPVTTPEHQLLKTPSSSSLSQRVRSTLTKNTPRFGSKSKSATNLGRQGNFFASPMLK
Put plainly: MgcRacGAP GTPase-activating activity inhibitors, confirmation, biochemical, ADP Hunter fluorescence, primary and confirmatory (AID 624330). It is filed as functional.

Another assay deals with T4, Streptokinase A (Streptococcus pyogenes serotype M1, UniProt P10520).
T4 sequence (P10520 whole entry): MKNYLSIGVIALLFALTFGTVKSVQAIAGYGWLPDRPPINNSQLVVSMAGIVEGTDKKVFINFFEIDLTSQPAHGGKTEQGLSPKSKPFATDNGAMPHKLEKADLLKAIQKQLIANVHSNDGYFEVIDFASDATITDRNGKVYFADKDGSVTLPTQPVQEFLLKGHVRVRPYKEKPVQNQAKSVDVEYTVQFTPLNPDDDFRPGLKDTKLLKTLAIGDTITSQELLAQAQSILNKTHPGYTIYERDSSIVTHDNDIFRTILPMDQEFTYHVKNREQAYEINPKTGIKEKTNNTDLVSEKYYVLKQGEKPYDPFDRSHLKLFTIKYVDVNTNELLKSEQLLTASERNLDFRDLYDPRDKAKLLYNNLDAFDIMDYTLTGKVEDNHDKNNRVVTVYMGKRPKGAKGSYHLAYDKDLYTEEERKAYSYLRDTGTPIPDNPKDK
The assay is described as follows: S. pyogenes streptokinase expression inhibitors, potency, dose response, plasminogen activation absorbance, OD405 (AID 1914).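 Also: secreted streptokinase activity via plasminogen activation per viability signal from cell pellet.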 It is filed as functional, Streptococcus pyogenes M1 GAS.

Assay [13] relates to Streptococcus sp. 'group A'. Put plainly: growth inhibition of control SK(-) GAS strain, dose response, counter-screen for streptokinase expression inhibitor project, luminescence, kanamycin, BacTiterGlo, confirmation (AID 1900). It is filed as functional, organism-based. (The purpose of a counterscreen is to sort out artefacts and off-target activity.)
A further assay concerns Streptococcus. The assay is described as follows: Group A Streptococcus viability loss, dose response, counter-screen for streptokinase expression inhibitor project, luminescence, BacTiterGlo (AID 1915).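 Also: potency for reduction of bacterial viability or growth.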 It is filed as functional, organism-based.
Assay [14] deals with T5, Microphthalmia-associated transcription factor (Homo sapiens, UniProt O75030).
T5 sequence (O75030 whole entry): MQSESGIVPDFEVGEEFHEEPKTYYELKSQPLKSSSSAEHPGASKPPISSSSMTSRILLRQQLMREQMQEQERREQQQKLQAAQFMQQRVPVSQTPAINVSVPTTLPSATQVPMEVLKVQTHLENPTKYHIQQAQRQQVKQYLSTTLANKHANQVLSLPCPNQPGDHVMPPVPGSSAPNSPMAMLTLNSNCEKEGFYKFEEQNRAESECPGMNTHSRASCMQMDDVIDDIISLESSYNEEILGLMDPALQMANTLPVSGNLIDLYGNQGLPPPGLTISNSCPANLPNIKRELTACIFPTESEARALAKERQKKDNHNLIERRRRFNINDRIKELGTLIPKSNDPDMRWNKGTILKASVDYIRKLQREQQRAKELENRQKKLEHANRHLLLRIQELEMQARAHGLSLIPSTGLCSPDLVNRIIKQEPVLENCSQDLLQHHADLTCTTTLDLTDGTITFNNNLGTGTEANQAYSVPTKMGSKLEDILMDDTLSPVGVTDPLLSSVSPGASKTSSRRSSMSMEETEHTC
The assay is described as follows: TRPM1 promoter luciferase signal decrease, dose response, MITF inhibitor project, cell-based, SK-MEL-5, cherry-picked, set 3 (AID 493073).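 Also: SK-MEL-5 melanoma cells with luciferase driven by the MITF target TRPM1 promoter.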 It is filed as functional.

Molecules are shown by their SMILES. Activity calls are given as the source filed them.

Sequence of Large T antigen (P03070 whole entry): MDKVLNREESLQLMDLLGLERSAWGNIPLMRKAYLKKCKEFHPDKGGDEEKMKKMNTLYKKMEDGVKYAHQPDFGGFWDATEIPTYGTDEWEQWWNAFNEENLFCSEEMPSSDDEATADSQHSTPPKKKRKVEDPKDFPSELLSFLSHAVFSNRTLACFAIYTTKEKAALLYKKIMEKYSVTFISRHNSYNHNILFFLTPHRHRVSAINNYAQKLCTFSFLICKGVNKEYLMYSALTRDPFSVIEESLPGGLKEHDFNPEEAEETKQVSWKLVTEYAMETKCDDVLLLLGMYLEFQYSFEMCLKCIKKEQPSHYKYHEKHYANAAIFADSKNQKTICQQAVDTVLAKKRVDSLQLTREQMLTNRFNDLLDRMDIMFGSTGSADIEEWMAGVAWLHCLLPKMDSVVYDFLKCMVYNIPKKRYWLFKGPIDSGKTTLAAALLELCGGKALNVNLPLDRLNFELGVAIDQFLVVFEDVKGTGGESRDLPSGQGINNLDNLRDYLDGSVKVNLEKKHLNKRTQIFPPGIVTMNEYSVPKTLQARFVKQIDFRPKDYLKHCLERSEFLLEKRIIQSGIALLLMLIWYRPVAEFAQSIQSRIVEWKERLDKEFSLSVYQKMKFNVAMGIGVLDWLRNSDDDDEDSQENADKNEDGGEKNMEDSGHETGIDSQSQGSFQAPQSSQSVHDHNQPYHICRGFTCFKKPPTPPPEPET

For `CC(C)N1CCc2c(sc(NC(=O)c3ccc4ccccc4c3)c2C(N)=O)C1`, the EC50 (commonly the concentration at which the effect is half-maximal) in assay [1] is > 300 µM (inconclusive); in [2], > 300 µM (not active). Besides, in the assay with Vero, the CC50 was > 25 µM (active).
As for `CCCSc1nn2c(=O)c3ccccc3nc2s1`, the CC50 in assay [3] is > 40 µM (active).
On to `CCOc1ccc(NC(=S)N2CCC(NC(=O)c3ccccc3C)CC2)cc1`, for which the EC50 in assay [4], in assay [5] and in [6] was > 120 µM (not active) throughout.
As to `CCC(=O)N1c2ccc(S(=O)(=O)CCC(=O)N3CCn4c3nc3ccccc34)cc2CC1C` (stereo unspecified), the figures for the EC50 in assay [7] and in assay [8] were 42.9 µM (active) and 4.5 µM (active), respectively. In [3], the CC50 was > 40 µM (active).
Turning to `Cc1cccc(C(=O)Nc2cccc(S(=O)(=O)NCc3ccco3)c2)c1`, the CC50 in the assay with Vero is 23.6 µM (active).
Take `C=C1C(=O)OC2CC1C(OC(C)=O)CC(C)=CCCC(C)=CCCC2(C)O` (stereo unspecified): the AC50 (usually the midpoint of the concentration-response curve, whichever way the signal moves) in [9] is 4.19 µM (active); in assay [10] it was 0.91 µM (active); in assay [11], 15.1 µM (active).
Consider `C=CCn1c(SCc2ccc(C#N)cc2)nnc1-c1cccc(OC)c1`, for which the figures for the EC50 in assay [4], in [5] and in assay [6] were 18.6 µM (active), > 120 µM (not active) and 48.7 µM (active), respectively.
With `CCOc1ccc(S(=O)(=O)N(C)c2ccc(OCC(=O)Nc3nc4ccccc4s3)cc2)cc1`, the AC50 with INS1 was 7.73 µM (active); in assay [9], 4.06 µM (active); in assay [10] it was 2.82 µM (active); in assay [11], 34.6 µM (active).
On to `CCc1ccc(NCc2ccc(OC)c(Cn3ccnc3)c2)cc1`, for which the CC50 in assay [3] is 24.2 µM (active).
In the case of `COc1cc(/C=C2\C(=O)NN(c3ccccc3)C2=O)cc([N+](=O)[O-])c1O`, the EC50 in [7] is 21.2 µM (inconclusive); in [1], 37.5 µM (active); in [8], > 38 µM (not active); in assay [2], > 300 µM (not active). The IC50 (in general, the concentration at which inhibition is half-maximal) at Large T antigen was > 100 µM (active).
On to `Cc1ccc(NC(CNS(=O)(=O)c2ccc(Cl)cc2)c2ccccc2)cc1` (stereo unspecified), for which the EC50 is > 120 µM (not active) in assay [4], 10.3 µM (active) in assay [5] and 45.4 µM (active) in assay [6].
For `CCN1C(=O)/C(=C/c2c[nH]nc2-c2ccccc2)SC1=S` the same measures were > 120 µM (not active), > 120 µM (not active) and > 120 µM (not active).
In the case of `CC(C)(C)c1ccc(OCC(=O)Nc2ccc3c4c(cccc24)C(=O)NC3=O)cc1`, the EC50 is > 120 µM (not active) in assay [4], > 120 µM (not active) in assay [5] and 10.8 µM (active) in [6]. Moreover, the IC50 in the assay with H9c2 is 20.9 µM (active).
As for `O=C(Nc1ccc(N2CCOCC2)c(Cl)c1)c1c(F)c(F)c(F)c(F)c1F`, the CC50 in assay [3] was > 40 µM (active).
As to `COc1ccccc1-c1nnc(NC(=O)c2ccc(S(=O)(=O)N(C)C)cc2)o1`, the EC50 in assay [4], in assay [5] and in assay [6] was > 120 µM (not active) throughout.
Regarding `c1ccc(CN2CCN(c3ncnc4c3[nH]c3ccccc34)CC2)cc1`, the figures for the AC50 in assay [9], in assay [10] and in assay [11] were 5.4 µM (active), 2.06 µM (active) and 31.4 µM (active), respectively.
As for `O=C(COc1cccc2cccnc12)N/N=C/c1ccc(O)cc1`, the IC50 was 77 µM (active) in assay [12] and 19.5 µM (active) at Large T antigen.
In the case of `O=C1c2ccc3c4c(ccc(c24)C(=O)N1c1cccc(O)c1)C(=O)N(c1cccc(O)c1)C3=O`, the EC50 on Streptokinase A was > 150 µM (not active); in assay [4], 17.1 µM (active); in assay [13], 1.22 µM (active); in [5], 15.1 µM (active); in the assay on Streptococcus, 1.29 µM (active); in assay [6], 85.7 µM (active). Further, the concentration at half-maximal activity (AC50) in the assay on INS1 was 0.848 µM (active). The CC50 with Vero is > 25 µM (active).
As to `C=C1C(=O)O[C@@]23[C@H]1CC[C@@H](C)[C@@H]2CC[C@@]1(C)O[C@@H]31` [ARTEANNUIN B], the AC50 in assay [14] is 5.22 µM (active).
For `CCCCN(CCCC)c1nc(-c2ccncc2)nc2ccccc12`, the values for the EC50 (in [13]; in the assay with Streptococcus) were 5.38 µM (active) and 8.44 µM (active), respectively. In assay [3], the CC50 was 29.3 µM (active).
For the compound `Cc1c(C(=O)Nc2ccc(F)c(F)c2)oc2ccc(S(=O)(=O)N3CCCCC3)cc12`, the figures for the AC50 in [9], in assay [10] and in assay [11] were 28 µM (active), 7.05 µM (active) and > 70 µM (inactive), respectively.
